From ChEMBL document CHEMBL4373729, “Natural dimers of coumarin, chalcones, and resveratrol and the link between structure and pharmacology” (Eur J Med Chem, 2019) come the findings set out here.

In one test the test system is Saccharomyces cerevisiae. The test is described as follows: Inhibition of yeast alpha-glucosidase using p-nitrophenyl-alpha-D-glucopyranoside as substarte preincubated for 0.5 hrs followed by substrate addition measured after 0.5 hrs relative to control. As to conditions: concentration not given here.
Test [1] in a line: Inhibition of yeast alpha-glucosidase using p-nitrophenyl-alpha-D-glucopyranoside as substarte preincubated for 0.5 hrs followed by substrate addition measured after 0.5 hrs. Also on record: species or system Saccharomyces cerevisiae.
Test [2] concerns the target T1, DNA topoisomerase 2-alpha (Homo sapiens, UniProt P11388). The test can be described thus: Inhibition of topoisomerase 2 (unknown origin).
In test [3] the target is T1, DNA topoisomerase 2-alpha. The test is described as follows: Inhibition of human topoisomerase 2 by fluorescence method.
In test [4] the target is T2, Alpha glucosidase (Homo sapiens, UniProt O43451+P10253+P14410+Q2M2H8). The test can be described thus: Inhibition of alpha-glucosidase (unknown origin) using 4-nitrophenyl alpha-D-glucopyranoside as substarte preincubated for 10 mins followed by substrate addition measured after 30 mins. In kind it is protein assay.
The subject of another test is Plasmodium falciparum. The test is described as follows: Antiplasmodial activity against multidrug-resistant Plasmodium falciparum K1 by [3H]-hypoxanthine incorporation assay. It counts as functional, organism-based.
Test [5] concerns the target T2, Alpha glucosidase. The test can be described thus: Inhibition of alpha-glucosidase (unknown origin). It counts as protein assay.
The target of test [6] is Glucagon-like peptide 1 receptor (Homo sapiens, UniProt P43220). The test can be described thus: Agonist activity at human GLP1 receptor.
Sequence of Glucagon-like peptide 1 receptor (P43220 whole entry): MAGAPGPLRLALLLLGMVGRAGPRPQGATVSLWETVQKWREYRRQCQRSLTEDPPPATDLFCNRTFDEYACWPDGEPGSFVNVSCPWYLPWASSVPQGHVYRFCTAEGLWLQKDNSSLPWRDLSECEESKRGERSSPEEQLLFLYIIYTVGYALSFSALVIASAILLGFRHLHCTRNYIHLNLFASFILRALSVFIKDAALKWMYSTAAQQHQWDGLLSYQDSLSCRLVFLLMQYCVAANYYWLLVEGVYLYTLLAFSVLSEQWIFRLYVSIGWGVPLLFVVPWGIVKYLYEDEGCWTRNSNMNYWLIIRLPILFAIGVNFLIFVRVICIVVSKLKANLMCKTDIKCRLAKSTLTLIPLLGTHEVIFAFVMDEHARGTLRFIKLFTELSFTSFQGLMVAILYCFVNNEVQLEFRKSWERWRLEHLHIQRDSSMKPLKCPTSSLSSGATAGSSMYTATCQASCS
The next test addresses T3, Cathepsin L2 (Homo sapiens, UniProt O60911).
T3 sequence (O60911 whole entry): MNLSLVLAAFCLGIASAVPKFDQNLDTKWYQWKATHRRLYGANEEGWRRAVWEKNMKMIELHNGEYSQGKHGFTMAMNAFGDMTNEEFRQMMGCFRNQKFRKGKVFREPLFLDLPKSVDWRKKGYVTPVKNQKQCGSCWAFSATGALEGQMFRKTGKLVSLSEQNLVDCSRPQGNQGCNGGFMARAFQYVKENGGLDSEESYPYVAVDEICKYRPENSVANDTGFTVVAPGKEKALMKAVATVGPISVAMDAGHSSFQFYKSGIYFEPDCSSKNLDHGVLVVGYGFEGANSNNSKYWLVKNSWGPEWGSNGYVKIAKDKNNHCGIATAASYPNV
The test is described as follows: Inhibition of recombinant human cathepsin V using Z-Phe-Arg-7-amido-4-methylcoumarin as substrate by fluorescence assay.

Test [7] addresses Human immunodeficiency virus type 1 reverse transcriptase (Human immunodeficiency virus 1, UniProt Q72547). The test can be described thus: Inhibition of HIV-1 reverse transcriptase.
Another test relates to NCI-H187. The test can be described thus: Cytotoxicity against human NCI-H187 cells assessed as reduction in cell viability. It counts as functional, cell-based.
In another test the test system is KB. The test can be described thus: Cytotoxicity against human KB cells assessed as reduction in cell viability. It counts as functional, cell-based.

In brackets after ≈: the same amount, converted by molar mass. A value given as a limit tells only on which side of the number the result lay.

T1 sequence (P11388 whole entry): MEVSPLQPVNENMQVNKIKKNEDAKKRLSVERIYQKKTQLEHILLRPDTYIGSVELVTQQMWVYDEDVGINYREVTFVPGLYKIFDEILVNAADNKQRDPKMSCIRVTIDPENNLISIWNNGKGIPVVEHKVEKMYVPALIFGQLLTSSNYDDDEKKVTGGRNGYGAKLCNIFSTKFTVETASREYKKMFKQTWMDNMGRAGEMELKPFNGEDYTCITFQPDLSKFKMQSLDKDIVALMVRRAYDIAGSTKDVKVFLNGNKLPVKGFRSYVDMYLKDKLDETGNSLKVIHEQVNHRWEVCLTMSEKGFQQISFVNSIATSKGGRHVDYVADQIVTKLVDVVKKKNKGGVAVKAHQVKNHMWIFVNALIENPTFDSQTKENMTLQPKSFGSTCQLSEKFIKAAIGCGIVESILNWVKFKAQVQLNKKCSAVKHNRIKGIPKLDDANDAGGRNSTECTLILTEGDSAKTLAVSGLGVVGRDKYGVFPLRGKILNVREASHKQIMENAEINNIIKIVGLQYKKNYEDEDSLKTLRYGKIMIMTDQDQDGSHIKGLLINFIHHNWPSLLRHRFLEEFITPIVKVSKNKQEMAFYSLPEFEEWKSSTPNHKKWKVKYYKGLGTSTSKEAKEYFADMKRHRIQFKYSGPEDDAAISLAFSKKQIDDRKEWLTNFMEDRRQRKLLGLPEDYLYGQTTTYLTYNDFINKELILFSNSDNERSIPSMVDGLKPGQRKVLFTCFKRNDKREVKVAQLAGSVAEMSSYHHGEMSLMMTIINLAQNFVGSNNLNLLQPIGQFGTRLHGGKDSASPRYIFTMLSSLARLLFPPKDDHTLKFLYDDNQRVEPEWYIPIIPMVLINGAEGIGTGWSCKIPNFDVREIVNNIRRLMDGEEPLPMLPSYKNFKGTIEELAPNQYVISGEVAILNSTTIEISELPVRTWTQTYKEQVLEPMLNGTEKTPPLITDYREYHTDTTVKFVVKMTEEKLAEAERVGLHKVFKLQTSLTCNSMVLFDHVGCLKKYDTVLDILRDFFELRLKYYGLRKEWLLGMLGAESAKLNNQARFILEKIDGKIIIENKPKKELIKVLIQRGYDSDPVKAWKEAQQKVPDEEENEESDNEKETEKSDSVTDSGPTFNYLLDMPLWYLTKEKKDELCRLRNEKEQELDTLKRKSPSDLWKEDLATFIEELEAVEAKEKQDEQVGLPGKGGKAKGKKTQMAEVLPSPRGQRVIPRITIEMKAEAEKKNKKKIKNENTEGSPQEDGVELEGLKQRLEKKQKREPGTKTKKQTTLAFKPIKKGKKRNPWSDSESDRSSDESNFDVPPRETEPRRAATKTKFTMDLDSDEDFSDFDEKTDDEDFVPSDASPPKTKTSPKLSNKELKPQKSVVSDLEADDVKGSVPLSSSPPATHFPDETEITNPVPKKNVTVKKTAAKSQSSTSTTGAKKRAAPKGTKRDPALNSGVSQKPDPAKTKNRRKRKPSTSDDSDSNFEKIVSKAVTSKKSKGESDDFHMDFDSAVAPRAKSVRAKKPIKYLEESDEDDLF

Consider `Cc1cc(=O)oc2cc(O)c(-c3c(C)c4ccc(O)cc4oc3=O)cc12`, for which, in the test with Saccharomyces cerevisiae, the inhibition was > 65%. The IC50 in [1] was 36.8 µM.

Consider `O=C(/C=C/c1ccc(O)cc1)c1ccc2c(c1O)[C@H](C(=O)c1ccc(O)cc1O)[C@@H](c1ccc(O)cc1)O2`, for which the IC50 in test [2] stood at 2.1 µM; in [3], 15.3 µM.

At Alpha glucosidase [4], `O=c1ccc2ccc(O)c(-c3c(OC4O[C@H](CO)[C@@H](O)[C@H](O)[C@H]4O)ccc4ccc(=O)oc34)c2o1` (stereo partly specified) gave an IC50 of 760 µg/mL (≈ 1570 µM).

In the test on Plasmodium falciparum, `COc1cc(OC)c2c(c1OC)O[C@H]1c3c(OC)cc(OC)c(OC)c3O[C@H](c3ccccc3)[C@H]1[C@@H]2/C=C/c1ccccc1` [DEPENDENSIN] yielded an IC50 of 3.02 to 4.21 µg/mL (≈ 5.06 to 7.06 µM).

In turn, `COc1cc(OC)c([C@@H]2Oc3c(OC)c(OC)cc(OC)c3[C@H](/C=C/c3ccccc3)[C@@H]2C(=O)c2ccccc2)c(O)c1OC` came in with a half-inhibitory concentration (IC50) in the test with Plasmodium falciparum of 3.02 to 4.21 µg/mL (≈ 4.93 to 6.87 µM).

For `C=C(C)C(COc1c2occc2c(OC)c2ccc(=O)oc12)OC(C)(C)[C@H](O)COc1c2ccoc2cc2oc(=O)ccc12` (stereo partly specified), on Alpha glucosidase [5], the IC50 is 8.8 to 9.8 µM.

Turning to `Cc1c(-c2c(O)ccc3c(C)cc(=O)oc23)c(=O)oc2cc(O)ccc12`, the inhibition in the test with Saccharomyces cerevisiae is > 65%. This compound came in with an IC50 in [1] of 16.3 µM.

In turn, `COc1cc([C@H]2[C@](NC(=O)c3ccc(NC(=O)OC(C)(C)C)cc3)(C(=O)O)[C@@H](c3ccc(OC(=O)c4cccs4)c(OC)c3)[C@]2(NC(=O)c2ccc(NC(=O)OC(C)(C)C)cc2)C(=O)O)ccc1OC(=O)c1cccs1` registered an EC50 in test [6] of 0.847 µM.

Regarding `O=C(c1ccc(O)cc1O)[C@@H]1[C@H](c2ccc(O)cc2)c2cc(O)c(O)cc2[C@H](O)[C@@H]1C(=O)c1ccc(O)cc1`, the IC50 on Cathepsin L2 is 1.4 µM.

`COc1cc(OC)c(OC)c2c1C[C@H]1[C@@H](/C=C/c3ccccc3)c3c(OC)cc(OC)c(OC)c3O[C@@]1(c1ccccc1)O2` showed an IC50 in the test with Plasmodium falciparum of 3.02 to 4.21 µg/mL (≈ 5.06 to 7.06 µM).

For the compound `COc1cc(OC)c([C@@H]2Oc3c(OC)c(OC)cc(OC)c3[C@@H](/C=C/c3ccccc3)[C@H]2C(=O)c2ccccc2)c(O)c1OC`, the IC50 with Plasmodium falciparum is 3.02 to 4.21 µg/mL (≈ 4.93 to 6.87 µM).

As to `C=C(C)C(COc1c2occc2cc2ccc(=O)oc12)OC(C)(C)[C@H](O)COc1c2ccoc2cc2oc(=O)ccc12` (stereo partly specified), the IC50 at Alpha glucosidase [5] lay within 8.8 to 9.8 µM.

`COc1cc2cc(Oc3cc(O[C@@H]4O[C@H](CO)[C@@H](O)[C@H](O)[C@H]4O[C@@H]4O[C@H](CO)[C@@H](O)[C@H](O)[C@H]4O)c4ccc(=O)oc4c3)c(=O)oc2cc1O`: the IC50 at Alpha glucosidase [4] was determined as 231 µg/mL (≈ 334 µM).

Turning to `O=C(c1ccc(O)cc1O)[C@H]1[C@H](c2ccc(O)cc2)c2cc(O)c(O)cc2[C@H](O)[C@]1(O)C(=O)c1ccc(O)cc1`, the IC50 on Cathepsin L2 turned out to be 0.42 µM.

`O=c1ccc2ccc(Oc3cc4ccc(O)c(-c5c(OC6O[C@H](CO)[C@@H](O)[C@H](O)[C@H]6O)ccc6ccc(=O)oc56)c4oc3=O)cc2o1` (stereo partly specified) had an IC50 at Alpha glucosidase [4] of 780 µg/mL (≈ 1210 µM).

The compound `C=C(C)C(COc1c2ccoc2cc2oc(=O)ccc12)OC(C)(C)C(O)COc1c2occc2c(OC)c2ccc(=O)oc12` (stereo unspecified) registered an IC50 on Alpha glucosidase [5] of 8.8 to 9.8 µM.

For `COc1cc([C@H]2[C@](NC(=O)c3ccc(NC(=O)C(C)C)cc3)(C(=O)O)[C@@H](c3ccc(OC(=O)c4cccs4)c(OC)c3)[C@]2(NC(=O)c2ccc(NC(=O)C(C)C)cc2)C(=O)O)ccc1OC(=O)c1cccs1`, the EC50 in test [6] is 0.203 µM. In other words, the sub-micromolar range.

Regarding `COc1cc(OC)c2c(c1OC)C=C(C(=O)c1ccccc1)C1(C=C(c3ccccc3)Oc3c(OC)c(OC)cc(OC)c31)O2` (stereo unspecified), the IC50 in the test with Plasmodium falciparum was 3.02 to 4.21 µg/mL (≈ 4.96 to 6.92 µM).

With `O=C1c2ccc(O)cc2OC2c3cc(O)c(O)cc3[C@@H](c3ccc(O)cc3)[C@@H](C(=O)c3ccc(O)cc3O)C12` (stereo partly specified), the IC50 on Cathepsin L2 was determined as 0.7 µM.

The compound `O=C(/C=C/c1ccc(O)cc1)c1cc2c(cc1O)O[C@H](c1ccc(O)cc1)[C@H]2C(=O)c1ccc(O)cc1O` showed an IC50 in test [3] of 14.5 µM.

`Oc1ccc(/C=C/c2cc(O)c3c(-c4cc(O)cc(O)c4)c(-c4ccc(O)cc4)oc3c2)cc1`: in test [7], the IC50 is 8 µM.

As for `C=CC(C)(C)c1c2c(c(O)c3c1OC(C)(C)C=C3)C=C([C@H]1CC(C)(C)Oc3c1c(O)c1ccc(=O)oc1c3C(C)(C)C=C)CO2`, the IC50 in the test on NCI-H187 came to 7.1 µg/mL (≈ 11.6 µM); in the test with KB, 5.95 µg/mL (≈ 9.74 µM).

One may read the inhibition as the drop in the measured response relative to a control, in per cent. The IC50 is the concentration at which inhibition is half-maximal. Usually EC50 stands for the concentration at which the effect is half-maximal. Low values mean higher potency in that assay, high ones lower potency in that assay.
